Results: patent US10960018B2, “Methods and compounds for stimulating read-through of premature termination codons” (The UAB Research Foundation, priority 2016, dated 2021)

Key:
[1] = system: mouse embryonic fibroblasts (MEF); conditions: 48 h
[2] = system: FRT W1282X cells; assay: Transepithelial chloride conductance assay in FRT W1282X cells; format: cell-based, Rat; conditions: 48 hours; escin 10 μM, VX-809 3 μM, GP-5 10 μM, C1+C2 10 μM
Protocol: Stably transfected FRT cells as described herein cells were seeded onto Costar 24-well […] permeable supports at a density of ˜2×10^6 cells/filter and maintained at 37° C. with 5% CO2. Transepithelial resistance was assessed using an epithelial voltmeter to ensure the formation of tight monolayers, as defined by resistance >6 kcm^2. During initial evaluation of agents, cells were treated with compounds (10 μM), vehicle control (0.3% DMSO), or positive control (250 μg/mL G418) for 48 hours before transepithelial conductance (Gt) was assessed; subsequent studies used other concentrations of compounds. Measurements were taken at baseline, after the addition of 20 μM forskolin (FSK, a cAMP agonist that stimulates CFTR activity) and 10 μM CFTRInh-172 (a CFTR-specific inhibitor).
(§1) Individual assays were performed as described herein.
As previously reported in the literature, the combination of CFTR correctors (such as VX-809) and CFTR potentiators (such as VX-770) act synergistically to improve CFTR function. […] Compounds alone or in the indicated combination were pre-incubated with FRT W1282X cells for 48 hours. During the assay the baseline conductance (Gt) was initially determined prior to the acute addition of forskolin (20 μM) and VX-770 (10 μM) to stimulate CFTR activity; the CFTR inhibitor, CFTRInh-172 (10 μM), was added to inhibit CFTR activity at the end of the assay. Enhancement of PTC read-through by the compounds of the present disclosure was determined by an increase in CFTR conductance. CFTR conductance also indicated the CFTR was functional as a result of the read-through of the PTC.
Compounds alone or in the indicated combination were pre-incubated with FRT G542X cells for 48 hours. […] Enhancement of PTC read-through by the compounds of the present disclosure was determined by an increase in CFTR conductance. CFTR conductance also indicated the CFTR was functional as a result of the read-through of the PTC.
It has been reported that aminoglycosides interfere with the action read-through stimulating compound. […] CFTR conductance also indicated the CFTR was functional as a result of the read-through of the PTC.
Stimulation of CFTR activity was determined by an increase in CFTR conductance. […] During the assay the baseline conductance (Gt) was initially determined prior to the acute addition of forskolin (20 μM) and GP-5 (10 μM) to stimulate CFTR activity; the CFTR inhibitor, […] (10 μM), was added to inhibit CFTR activity at the end of the assay.
The effect of the read-through stimulating compounds of the present disclosure in combination with the CFTR corrector VX-809 was further examined in FRT cells with the G542X, Y122X and W1282X mutations. […] CFTR conductance also indicated the CFTR was functional as a result of the read-through of the PTC.

[3] = system: HBE ΔF508/ΔF508 cells; assay: Ussing chamber Isc in primary HBE ΔF508/ΔF508 cells; format: cell-based, Human; conditions: escin 10 μM, VX-809 6 μM; 48 hours
Protocol: Short circuit current (Isc) was measured under voltage clamp conditions as previously described (Rowe S M, et al., J Mol Med (Berl); 89: 1149-1161; 2011). Briefly, primary HBE cells as described herein were seeded on Costar […] permeable supports (5.3×10^5 cells/filter, 6.5 mm diameter; Bethesda, Md.) after coating with fibroblast-conditioned media (Liu X, et al., Am J Pathol; 180: 599-607, 2012). Well-differentiated cells were treated with compounds for 48 hours and Isc measurements were obtained by using an epithelial voltage clamp apparatus in Ussing chambers (Physiologic Instruments). After measuring the baseline Isc, amiloride (100 μM) was added to block the epithelial sodium channel activity followed by the addition of CFTR agonists (20 μM FSK and 10 μM VX-770). CFTRInh-172 (10 μM) was added at the end of experiment to block CFTR-dependent Isc. DMSO (0.1%) and G418 (250 μg/mL) served as vehicle and positive controls, respectively.
as §1

decrease of total protein concentrations [1]	SMILES	CFTR stimulation (conductance) in the presence of forskolin and GP-5 [2]	forskolin/VX-770 dependent Isc [3]
about 40%	COc1cccc2c1C(=O)c1c(O)c3c(c(O)c1C2=O)C[C@@](O)(C(=O)CO)C[C@@H]3O[C@H]1C[C@H](N)[C@H](O)[C@H](C)O1 [Doxorubicin, DOXORUBICIN]	–	–
–	Cc1ccc(NC(=O)C2(c3ccc4c(c3)OC(F)(F)O4)CC2)nc1-c1cccc(C(=O)O)c1 [VX-809]	varying stimulatory effects	significant increase
